Test results as given in patent US20260109707A1, “HETEROBIFUNCTIONAL COMPOUNDS AND METHODS OF TREATING DISEASE” (Halda Therapeutics OpCo. Inc., priority 2022, published 2026).

How the values were obtained:
BRD4-BD1 = target: T1, BRD4-BD1 (Homo sapiens, UniProt O60885); experiment: bromoKdELECT assay for binding affinity to BRD4-BD1; details: binding to BRD4-BD1, Table 4
T1 construct: made in house; host or cells: T7 phage grown in an E. coli host derived from the BL21 strain
Protocol: (§1) Compounds were tested using a bromoKdELECT assay. T7 phage strains displaying bromodomains were grown in parallel in 24-well blocks in an E. coli host derived from the BL21 strain. E. coli were grown to log-phase and infected with T7 phage from a frozen stock (multiplicity of infection=0.4) and incubated with shaking at 32° C. until lysis (90-150 minutes). The lysates were centrifuged (5,000×g) and filtered (0.2 μm) to remove cell debris. Streptavidin-coated magnetic beads were treated with biotinylated small molecule or acetylated peptide ligands for 30 minutes at room temperature to generate affinity resins for bromodomain assays. The liganded beads were blocked with excess biotin and washed with blocking buffer (SeaBlock (Pierce), 1% BSA, 0.05% Tween 20, 1 mM DTT) to remove unbound ligand and to reduce nonspecific phage binding. Binding reactions were assembled by combining bromodomains, liganded affinity beads, and test compounds in 1× binding buffer (17% SeaBlock, 0.33×PBS, 0.04% Tween 20, 0.02% BSA, 0.004% Sodium azide, 7.4 mM DTT). Test compounds were prepared as 1000× stocks in 100% DMSO. Kds were determined using an 11-point 3-fold compound dilution series with one DMSO control point. All compounds for Kd measurements are distributed by acoustic transfer (non-contact dispensing) in 100% DMSO. The compounds were then diluted directly into the assays such that the final concentration of DMSO was 0.09%. All reactions performed in polypropylene 384-well plates. Each was a final volume of 0.02 ml. The assay plates were incubated at room temperature with shaking for 1 hour and the affinity beads were washed with wash buffer (1×PBS, 0.05% Tween 20). The beads were then resuspended in elution buffer (1×PBS, 0.05% Tween […] non-biotinylated affinity ligand) and incubated at room temperature with shaking for 30 minutes. The bromodomain concentration in the eluates was measured by qPCR.

progesterone receptor = target: T2, progesterone receptor (Homo sapiens, UniProt P06401); experiment: PR Human Progesterone NHR Binding (Agonist Radioligand) Assay; details: binding to the progesterone receptor, cytosolic fractions of T47D cells, Table 12
T2 sequence (P06401 679-933 limits assumed): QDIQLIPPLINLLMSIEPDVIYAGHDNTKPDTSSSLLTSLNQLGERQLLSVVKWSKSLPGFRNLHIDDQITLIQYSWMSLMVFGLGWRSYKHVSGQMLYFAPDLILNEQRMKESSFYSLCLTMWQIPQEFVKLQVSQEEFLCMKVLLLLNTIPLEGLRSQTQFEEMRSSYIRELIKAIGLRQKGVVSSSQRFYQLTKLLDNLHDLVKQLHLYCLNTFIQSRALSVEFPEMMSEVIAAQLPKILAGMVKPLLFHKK
Protocol: Compounds were tested using the PR Human Progesterone NHR Binding (Agonist Radioligand) Assay, Cerep at Eurofins Discovery using a modified version of the protocol from Sarup et al. (Cancer Res 1988; 48:5071-5078). Briefly, cytosolic fractions of T47D cells were incubated with 0.5 nM [^3H]progesterone for 1 hour at 4° C. in the absence or presence of the test compound. Nonspecific binding was determined in the presence of 1 μM promegestone. Reactions were subjected to scintillation counting. Results are expressed as a percent inhibition of the control radioligand specific binding.

[1] = target: T3, progesterone receptor ligand binding domain (LBD) (Homo sapiens, UniProt P06401); experiment: FP assay for binding affinity to progesterone receptor (PolarScreen Progesterone Receptor Competitor Assay Kit); details: fluorescence polarization, GST-tagged PR LBD, Table 13
T3 construct: GST-tagged PR LBD, Fluormone tracer, and compound were mixed and incubated for 2 hours; purchased Life Technologies A15905 or a15906
T3 sequence (P06401 679-913 limits assumed): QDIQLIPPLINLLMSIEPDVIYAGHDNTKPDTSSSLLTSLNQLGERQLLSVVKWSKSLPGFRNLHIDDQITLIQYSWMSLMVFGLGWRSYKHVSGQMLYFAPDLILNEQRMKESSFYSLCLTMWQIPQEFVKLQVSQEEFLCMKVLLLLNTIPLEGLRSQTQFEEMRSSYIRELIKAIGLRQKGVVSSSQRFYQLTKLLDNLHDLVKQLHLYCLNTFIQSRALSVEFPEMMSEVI
Protocol: Compounds were tested using the PolarScreen™ Progesterone Receptor Competitor Assay Kit (Life Technologies Cat #A15905 or a15906), as per the manufacturer's instructions. Briefly, GST-tagged PR LBD, Fluormone tracer, and compound were mixed and incubated for 2 hours at room temperature in the dark. Following incubation, the plates were spun at 3000×g for 30 seconds, then sealed with an optical adhesive cover, and fluorescence polarization was measured using appropriate excitation and emission filters with an EnVision Plate Reader (Perkin Elmer). Compound concentration vs. mP value were plotted in Prism (GraphPad). A four-parameter non-linear regression curve fit was applied to dose-response data to determine the half-maximal inhibitory concentration (IC50) for each test compound.

BRD4-BD2 = target: T4, BRD4-BD2 (Homo sapiens, UniProt O60885); experiment: bromoKdELECT assay for binding affinity to BRD4-BD2; details: binding to BRD4-BD2, Table 5
T4 construct: made in house; host or cells: T7 phage grown in an E. coli host derived from the BL21 strain
Protocol: as §1, with “[…])” for “μm)”

| Compound | Kd (BRD4-BD1) [nM] | Kd (progesterone receptor) [nM] | IC50 [1] [nM] | Kd (BRD4-BD2) [nM] |
| --- | --- | --- | --- | --- |
| Cc1sc2c(c1C)C(c1ccc(Cl)cc1)=N[C@@H](CC(=O)NCCOCCOCCOC1CCN(c3ccc(C(=O)N[C@H]4CC[C@H](Oc5ccc(C#N)c(Cl)c5)CC4)nn3)CC1)c1nnc(C)n1-2 [I-2, N-[4-(3-chloro-4-cyano-phenoxy)cyclohexyl]-6-[4-[2-[2-[2-[[2-[(9S)-7-(4-chlorophenyl)-4,5,13-trimethyl-3-thia-1,8,11,12-tetrazatricyclo[8.3.0.0^2,6]trideca-2(6),4,7,10,12-pentaen-9-yl]acetyl]amino]ethoxy]ethoxy]ethoxy]-1-piperidyl]pyridazine-3-carboxamide] | – | 50 to 500 | 50 to 500 | – |
| CCNC(=O)C[C@@H]1N=C(c2ccc(CC3CCN(c4ccc(C(=O)N[C@H]5CC[C@H](Oc6ccc(C#N)c(Cl)c6)CC5)nn4)CC3)cc2)c2c(sc(C)c2C)-n2c(C)nnc21 [I-20] | 50 to 500 | – | – | 50 to 500 |
| CCNC(=O)C[C@@H]1N=C(c2ccc(N3CC4(C3)CN(c3ccc(C(=O)N[C@H]5CC[C@H](Oc6ccc(C#N)c(Cl)c6)CC5)nn3)C4)cc2)c2c(sc(C)c2C)-n2c(C)nnc21 [I-24] | 50 to 500 | – | – | 50 to 500 |
| CCNC(=O)C[C@@H]1N=C(c2ccc(OCC3CN(c4ccc(C(=O)N[C@H]5CC[C@H](Oc6ccc(C#N)c(Cl)c6)CC5)nn4)C3)cc2)c2c(sc(C)c2C)-n2c(C)nnc21 [I-29] | – | 50 to 500 | – | – |
| CCNC(=O)C[C@@H]1N=C(c2ccc(N3CCC(OC4CCN(c5ccc(C(=O)N[C@H]6CC[C@H](Oc7ccc(C#N)c(Cl)c7)CC6)nn5)CC4)CC3)cc2)c2c(sc(C)c2C)-n2c(C)nnc21 [I-44] | 50 to 500 | 50 to 500 | – | 50 to 500 |

Now from value to compound:

| Kd (BRD4-BD1) [nM] | Kd (progesterone receptor) [nM] | IC50 [1] [nM] | Kd (BRD4-BD2) [nM] | Compound |
| --- | --- | --- | --- | --- |
| 50 to 500 | – | – | – | Cc1sc2c(c1C)C(c1ccc(Cl)cc1)=N[C@@H](CC(=O)NCCOC1CCN(c3ccc(C(=O)N[C@H]4CC[C@H](Oc5ccc(C#N)c(Cl)c5)CC4)nn3)CC1)c1nnc(C)n1-2 [I-1, N-[4-(3-chloro-4-cyano-phenoxy)cyclohexyl]-6-[4-[2-[[2-[(9S)-7-(4-chlorophenyl)-4,5,13-trimethyl-3-thia-1,8,11,12-tetrazatricyclo[8.3.0.0^2,6]trideca-2(6),4,7,10,12-pentaen-9-yl]acetyl]amino]ethoxy]-1-piperidyl]pyridazine-3-carboxamide] |
| 50 to 500 | – | – | < 50 | CCNC(=O)C[C@@H]1N=C(c2ccc(CCCOC3CCN(c4ccc(C(=O)N[C@H]5CC[C@H](Oc6ccc(C#N)c(Cl)c6)CC5)nn4)CC3)cc2)c2c(sc(C)c2C)-n2c(C)nnc21 [I-17] |
